Article PMC2009665, “The bacterial mutation test. Six tests for carcinogenicity” (British Journal of Cancer, 1978)
Read-outs that look alike come from different tables or passages of the source.

What was measured:
[1] = test system: Salmonella typhimurium TA 1538
[2] = test system: Salmonella typhimurium TA 100
[3] = test system: Salmonella typhimurium TA 1538; conditions: cited from earlier work
[4] = test system: Salmonella typhimurium TA 100; conditions: cited from earlier work
[5] = test system: Salmonella typhimurium TA 1535
[6] = test system: Salmonella typhimurium TA 98
[7] = test system: Salmonella typhimurium TA 1535; conditions: cited from earlier work
TA 1537 = conditions: cited from earlier work
[8] = test system: Salmonella typhimurium (TA 1535, TA 1538, TA 98 and TA 100)
S. typhimurium = conditions: cited from earlier work
Strain G46 = conditions: cited from earlier work
Strain C 3076 = conditions: cited from earlier work
Strain TA 1530 = conditions: cited from earlier work
[9] = test system: Salmonella typhimurium TA 98; conditions: cited from earlier work
Strain TA 1532 = conditions: Lab 8; H induction method unknown; ref Green (1974); cited from earlier work
strain TA 1950 = conditions: after induction of enzymes with BHT; ref Green, 1974; cited from earlier work
strain TA 1952 = conditions: after induction of enzymes with BHT; ref Green, 1974; cited from earlier work

## Nc1ccc2cc3ccccc3cc2c1 [2-Aminoanthracene]
[1]
  Result on TA 1538: +
[2]
  Result on TA 100: +
[3]
  Result on TA 1538: +
[4]
  Result on TA 100: +

## Nc1ccc2ccccc2c1 [2-Naphthylamine]
[5]
  Result on TA 1535: +
[6]
  Result on TA 98: -
[7]
  Result on TA 1535: +

## Nc1ccc(-c2ccccc2)cc1 [4-Aminobiphenyl]
[5]
  Result on TA 1535: -
[1]
  Result on TA 1538: +
[6]
  Result on TA 98: +
TA 1537
  Result on TA 1537: +

## CN(C)c1ccc(N=Nc2ccccc2)cc1 [4-Dimethylaminoazobenzene]
[5]
  Result on TA 1535: +
[1]
  Result on TA 1538: +
[6]
  Result on TA 98: +
[2]
  Result on TA 100: +
[8]
  Result in the present study: positive
[3]
  Result on TA 1538: +
S. typhimurium; plate incorporation assay, ref Commoner et al. (1974)
  Response in the plate incorporation assay: unable to obtain a positive response

## Nc1cc2c3ccccc3ccc2c2ccccc12 [6-Aminochrysene]
[5]
  Result on TA 1535: -
[6]
  Result on TA 98: +
TA 1537
  Result on TA 1537: +

## Cc1c2ccccc2c(C)c2c1ccc1ccccc12 [9,10-Dimethyl-1,2-benzanthracene]
[5]
  Maximum fold increase in Salmonella revertants above the concurrent negative-control values, TA 1535: -
[1]
  Concentration of the compound at which the maximum effect occurred, TA 1538: 2500
  Maximum fold increase in Salmonella revertants above the concurrent negative-control values, TA 1538: 4 fold
[6]
  Maximum fold increase in Salmonella revertants above the concurrent negative-control values, TA 98: -
[2]
  Concentration of the compound at which the maximum effect occurred, TA 100: 2500
  Maximum fold increase in Salmonella revertants above the concurrent negative-control values, TA 100: 5 fold
[8]
  Test result (prediction of carcinogenicity from the test): +

## O=C1CCO1 [/3-Propiolactone]
[1]
  Result on TA 1538: +
[6]
  Result on TA 98: -
[2]
  Result on TA 100: +
[4]
  Result on TA 100: +
Strain G46
  Result on other strains: G46: 46+
Strain C 3076
  Result on other strains: C 3076: 76+

## CCN(CC)N=O [Diethylnitrosamine]
[8]
  Result in the present study: positive
  Result on subsequent testing: negative

## CN(C)N=O [Dimethylnitrosamine]
[5]
  Result on TA 1535: -
[1]
  Result on TA 1538: -
[6]
  Result on TA 98: -
[8]
  Result in the present study: negative
  Result on subsequent testing: positive results have, on occasions
Strain TA 1530; Lab 4, P Phenobarbital induction and S9 mix added, L tested in liquid culture, ref Bartsch et al. (1976)
  Result on other strains: TA 1530: 3+

## CCOS(C)(=O)=O [Ethyl methanesulphonate]
[5]
  Result on TA 1535: +
[1]
  Result on TA 1538: +
[6]
  Result on TA 98: +
[2]
  Result on TA 100: +
[8]
  Result in the present study: detected in all 4 strains
[7]
  Result on TA 1535: +
[4]
  Result on TA 100: +
Strain G46
  Result on other strains: G46: 46+
Strain C 3076
  Result on other strains: C 3076: 76+

## CN(C)P(=O)(N(C)C)N(C)C [Hexamethylphosphoramide]
[1]
  Result on TA 1538: -
[6]
  Result on TA 98: -
[3]
  Result on TA 1538: -
[9]
  Result on TA 98: -

## NN [Hydrazine]
[5]
  Result on TA 1535: +
[1]
  Result on TA 1538: -
[6]
  Result on TA 98: +
[2]
  Result on TA 100: +
[7]
  Result on TA 1535: +
[3]
  Result on TA 1538: -
TA 1537
  Result on TA 1537: -
Strain TA 1530; Lab 2, W no S9 mix, ref McCann et al. (1975) and references quoted therein
  Result on other strains: TA 1530: 3+
Strain G46
  Result on other strains: G46: 46+

## C=CCc1ccc2c(c1)OCO2 [Safrole]
[1]
  Result on TA 1538: -
[8]
  Result in the present study: positive
TA 1537
  Result on TA 1537: -
Strain TA 1530; Lab 8, H induction method unknown, ref Green (1974)
  Result on other strains: TA 1530: 3+
Strain TA 1532
  Result on other strains: TA 1532: 2+
Strain TA 1950
  Result in host-mediated assay, strain TA 1950: positive
Strain TA 1952
  Result in host-mediated assay, strain TA 1952: positive

## CCOC(N)=O [Urethane]
[5]
  Result on TA 1535: -
[1]
  Result on TA 1538: -
[6]
  Result on TA 98: -
[7]
  Result on TA 1535: -
[9]
  Result on TA 98: -
TA 1537
  Result on TA 1537: -

## C=CCl [Vinyl chloride]
S. typhimurium
  Result dissolved in DMSO: negative
  Result when tested as a gas: positive
